According to US20030154517A1, “Efficiency agrobacterium-mediated wheat transformation method” (priority 2001, published 2003):
Several values for one entry are separate records, joined by “and”; a condition that tells them apart may be missing. Equal values may be shown once. Read-outs that look alike come from different tables or passages of the source.

Assays:
[1] = system: immature embryos of wheat (Triticum aestivum L) cv Bobwhite; test: Agrobacterium-mediated wheat transformation, glyphosate selection (transformation efficiency); assay type: cell-based; details: for Over all % TE / Total Ind. Events: six experiments; for Transgenic #: Expt. 309 and Expt. 314
[2] = system: immature embryos of wheat; test: Agrobacterium-mediated wheat transformation, nptII (G418/kanamycin) selection (transformation efficiency); assay type: cell-based, Triticum aestivum L
From the text: Immature embryos of wheat (Triticum aestivum L) cv Bobwhite were isolated from the immature caryopsis (wheat spikelets) 12-15 days after pollination, and cultured on CM4C (Table 2) for 1-8 days, most typically for 4-6. The embryos without embryogenic callus were selected for Agrobacterium inoculation.
A disarmed Agrobacterium strain C58 (ABI) harboring a binary vector was used for all the experiments. […] The Agrobacterium cells were resuspended in the inoculation medium and the density was adjusted to an OD660 of 1. […] An equal amount of the Agrobacterium cell suspension was added such that the final concentration of Agrobacterium cells was an OD660 of 0.5. In most experiments, pluronic F68 was added to the inoculation mixture at a final concentration of 0.01%. The ratio between the Agrobacterium and immature embryos (IEs) was about 10 mL: 20-200 IEs. The conditions for inoculation were temperatures from about 23° C.-26° C. with a duration from about 5-60 minutes.
After the inoculation period, the remaining Agrobacterium cells were removed from the explants by using the in-house vacuum equipment. A piece of sterile Whatman No. 1 filter paper (to fit the size of the petri plate) was placed in each of 60×15 or 60×20 mm petri dishes without additional liquid or agar-supplemented media. Two hundred microliters of sterile water was placed in the middle of the filter paper. After 2-3 minutes, the inoculated immature embryos were placed in the plates. Usually, 20-50 explants are grouped as one stack (about 1 cm in size and 60-80 mg/stack), with 4-5 stacks on each plate. The plates were immediately parafilmed and then co-cultivated in the dark at 24° C.-26° C. for 2-3 days.
For nptII selection, immature embryos were isolated, precultured, inoculated, and co-cultured as previously described. After the 3-day co-culture, embryos were transferred to delay culture (solid CM4C2D) media (CM4C media as in Table 2 with 2 mg/L 2,4-D) with 500 mg/L carbenicillin for 7 days in the dark at 25° C. Selection was done in liquid CM4C media (as in Table 2 without the Phytagel) with 100 mg/L carbenicillin and 20 mg/L G418 on a support for 7 days in the dark followed by 7 days in the light (16 hr photoperiod), at 25° C. The calli were then transferred to liquid MMS0.2C media (as in Table 2 without the gelling agent) with 100 mg/L carbenicillin and 25 mg/L G418 on a support for 2 weeks at 25° C. with a 16 hr photoperiod. After 2 weeks, the calli were transferred to liquid MMSOC media (as in Table 2 without the gelling agent) with 100 mg/L carbenicillin and 25 mg/L G418 on a support for 2 to 4 weeks at 25° C. with a 16 hr photoperiod. Plantlets were transferred to solid MMSOC media with 100 mg/L carbenicillin and 25 mg/L G418 in sundae cups for 1 to 4 weeks at 25° C. with a 16 hr photoperiod.

[3] = system: wheat callus cultures; details: for 1 shoot/callus / 2 shoots/callus / 3 shoots/callus / 4 shoots/callus / Regenerable callus, # / Regenerable callus, % / Shoots, #: no glyphosate; for Shoots, #: two experiments
Description: Five treatments were done: 1) control (0.1 μM Cu as in MS medium) without additional copper; 2) 2 μM copper, applied at delay and selection for 2 weeks total; 3) 2 μM Cu at 1st regeneration for 2 weeks; 4) 2 μM Cu at 2nd regeneration for 2 or more weeks; and 5) 2 μM Cu constantly present at all of these stages.

[4] = Table 16: 250 μM CuSO4 in MMS0C
[5] = Table 16: 500 μM CuSO4 in MMS0C
[6] = Table 16: 750 μM CuSO4 in MMS0C
[7] = Table 16: 1000 μM CuSO4 in MMS0C
[8] = Table 16: 1500 μM CuSO4 in MMS0C
[9] = Table 16: 2000 μM CuSO4 in MMS0C
[10] = Table 16: 3000 μM CuSO4 in MMS0C
[11] = 2 μM Cu at 2nd Reg. (MMS0C), 2 w.

## O=S(=O)([O-])[O-].[Cu+2] [CuSO4, copper sulfate]
[1]; 1.0 μM copper sulfate in MMS0C, experiment 309
  improvement in TE (×): 2.5 ×
[1]; 1.0 μM copper sulfate in MMS0C, experiment 314
  improvement in TE (×): ~4 ×
[1]; 2.0 μM copper sulfate in MMS0C, experiment 309
  improvement in TE (×): 3.5 ×
[1]; 2.0 μM copper sulfate in MMS0C, experiment 314
  improvement in TE (×): ~10 ×
[1]; CuSO4 2 μM, initial 14 days (2 weeks) of last regeneration stage (MMS0C), per experiment and Total/average of twelve, listed as Cu
  TE %: 16.6%
[1]; Table 14: 2 μM Cu in MMS0C, per experiment and Total, listed as Cu
  % TE: 11.4% and 15.1% and 9.4%
[1]; Table 14: 20 μM Cu in MMS0C, per experiment and Total, listed as Cu
  % TE: 17.4% and 20.3% and 15.9%
[1]; Table 15: 20 μM CuSO4 in MMS0C
  Over all % TE: 17.6%
  Total Ind. Events: 103
[1]; Table 15: 40 μM CuSO4 in MMS0C, experiments 292, 293, 295, 296, 297, 301
  % TE: 14.0% and 13.9% and 22.6% and 21.8% and 20.7% and 19.6%
[1]; Table 15: 40 μM CuSO4 in MMS0C
  Over all % TE: 18.6%
  Total Ind. Events: 109
[1]; Table 15: 80 μM CuSO4 in MMS0C
  Over all % TE: 16.6%
  Total Ind. Events: 98
[1]; Table 16: 40 μM CuSO4 in MMS0C
  % TE: 17.5%
  Transgenics: 14
[1]; [4]
  % TE: 20%
  Transgenics: 16
[1]; [5]
  % TE: 24% and 23.75%
  Transgenics: 19
[1]; [6]
  % TE: 15.0%
  Transgenics: 12
[1]; [7]
  % TE: 10.0%
  Transgenics: 8
[1]; [8]
  % TE: 13.8%
  Transgenics: 11
[1]; [9]
  % TE: 11.1%
  Transgenics: 4
[1]; [10]
  % TE: 5.6%
  Transgenics: 2
[1]; Table 17: 0.25 μM CuSO4 in MMS0C, both experiments
  % TE: 4.8%
[1]; Table 17: 0.5 μM CuSO4 in MMS0C
  Transgenic #: 4 and 5
[1]; Table 17: 0.5 μM CuSO4 in MMS0C, both experiments
  % TE: 4.3%
[1]; Table 17: 1.0 μM CuSO4 in MMS0C
  Transgenic #: 10 and 11
[1]; Table 17: 1.0 μM CuSO4 in MMS0C, both experiments
  % TE: 10.1%
[1]; Table 17: 2.0 μM CuSO4 in MMS0C, both experiments
  % TE: 20.7%
[1]; copper sulfate from 20 to 80 μM inclusive in MMS0C, Table 15
  TE, average: 17.6%
[2]
  Independent transgenic events/explants: 37/220 and 63/228 and 48/211 and 46/275 and 53/225
[2]; 2 μM copper sulfate in MMSOC, nptII liquid system, per experiment and Totals, listed as Copper sulfate
  % TE: 3.72% and 2.16% and 0.57% and 9.43% and 9.14% and 4.51% and 1.56%
[2]; 2 μM copper sulfate in MMSOC, nptII liquid system, per experiment and Totals, listed as copper
  % TE: 4.5%
[2]; 20 μM copper sulfate in MMSOC, nptII liquid system, per experiment and Totals
  % TE: 7.2%
[2]; Table 19: compound at 2 μM in second regeneration stage (MMSOC media)
  % TE: 16.8%
[2]; Table 19: compound at 20 μM in second regeneration stage (MMSOC media)
  % TE: 27.6% and 30.6% and 22.7% and 16.7% and 23.6%
[2]; Table 19: compound at 20 μM in second regeneration stage (MMSOC media), listed as copper sulfate
  % TE: 27.6% and 16.7% and 22.7%
[3]; 2 μM Cu at 1st Reg., 2 w.
  1 shoot/callus: 11.8
  2 shoots/callus: 9.3
  3 shoots/callus: 3.3
  4 shoots/callus: 1.3
  Regenerable callus, #: 30.5
  Regenerable callus, %: 61%
  Shoots, #: 44
[3]; 2 μM Cu at 1st regeneration stage
  effect on regeneration: very little or no effect
[3]; [11]
  Regenerable callus, #: 40
  Regenerable callus, %: 80%
  Shoots, #: 80.5
[3]; 2 μM Cu at 2nd Reg., 2 w.
  2 shoots/callus: 12.5
  3 shoots/callus: 9.8
  4 shoots/callus: 4.3
[3]; 2 μM Cu at 2nd regeneration stage
  effect on regeneration: most significant increase in regeneration
[3]; 2 μM Cu at Delay/Sel., 2 w.
  1 shoot/callus: 14.3
  2 shoots/callus: 8.5
  3 shoots/callus: 7.8
  4 shoots/callus: 0.5
  Regenerable callus, #: 35.6
  Regenerable callus, %: 71%
  Shoots, #: 57.5
[3]; 2 μM Cu at all stages, 6 w.
  1 shoot/callus: 9
  2 shoots/callus: 11.5
  3 shoots/callus: 2.5
  4 shoots/callus: 0.5
  Regenerable callus, #: 30.5
  Regenerable callus, %: 61%
  Shoots, #: 37
[3]; 2 μM Cu at delay and selection stage
  effect on regeneration: Some improvement
[3]; 2 μM Cu present at all stages
  effect on regeneration: No improvement
